Test results from patent US20050182065A1, “Method of stimulating hair growth” (priority 2004, published 2005).

Assays:
C3H/HeN mice [1] = assay: Telogen Conversion Assay; format: in vivo; settings: Experiment 8; for Results: number of days following initiation of treatment when hair growth appeared in 50% of the mice: topical once daily for 5 days, solvent polyethylene glycol 30 v/v %, ethanol 30 v/v %, transcutanol 40 v/v %, vehicle 28; for Induction of anagen (conclusion in words): transcutol, ethanol, polypropylene glycol vehicle
C3H/HeN mice [2] = assay: Telogen Conversion Assay; format: in vivo; settings: for Results: number of days following initiation of treatment when hair growth appeared in 50% of the mice: topical once daily for 5 days
From the text: The Telogen Conversion Assay measures the potential of a compound (hereinafter referred to as the “test compound”) to convert mice in the resting stage of the hair growth cycle (“telogen”) to the active stage of the hair growth cycle (“anagen”). This assay takes advantage of the fact that the fur (i.e. hair) of 40-day-old C3H/HeN mice is in the telogen phase. This phase usually continues until about 75 days of age, at which point, anagen naturally occurs in these animals. In this assay, selected areas of 40-day-old mice (approximate) are shaved, contacted with a test agent, or a control, and the difference in the rate of hair growth is measured (i.e. induction of the anagen phase). The first sign of anagen is the darkening of skin color as melanocytes in the follicles start to synthesize melanin, in preparation for the production of pigmented hairs.
Female C3H/HeN mice, 7 weeks old (Charles River Laboratories, Raleigh, N.C.) were used for the study. Fur was clipped from the dorsal region of the mice prior to initiation of the study. Only mice with pink skin, a visual indication of the telogen phase, were selected for inclusion in the study.
Test compounds (from Table A) were dissolved in a vehicle consisting of propylene glycol (30%) and ethanol (70%). A test compound dissolved in vehicle, or a vehicle control (30/70 propylene glycol/ethanol, unless otherwise specified) was applied topically to the clipped dorsal region of the mice in each test group (7-10 mice) in a volume of 20 μl/cm^2. Treatments were applied once daily for 5 days.
The treatment area was observed and graded for signs of hair growth. The hair growth response was quantified by recording, for each animal, the day on which signs of hair growth first appeared over the treated area. The first sign of anagen was the darkening of skin color as melanocytes in the follicles started to synthesize melanin. The response time was measured as the number of days between initiation of treatment and when hair growth was present in 50% of the mice in a given group.
The results are reported as the number of days following initiation of treatment when hair growth appeared in 50% of the mice in a given group.

[3] = Experiment 15, 0.03 w/v %, propylene glycol 30%/ethanol 70%, vehicle >30
[4] = Experiment 15, 0.3 w/v %, propylene glycol 30%/ethanol 70%, vehicle >30
[5] = Experiment 15, 1.0 w/v %, propylene glycol 30%/ethanol 70%, vehicle >30
[6] = Experiment 15, terminated early

SMILES: CCOC(=O)CCCn1nnnc1-c1ccc2c(c1)[C@@H](Oc1ccnc(O)c1)[C@](C)(O)C(C)(C)O2 [Compound #5]
- Results: number of days following initiation of treatment when hair growth appeared in 50% of the mice (C3H/HeN mice [1]; 0.3 w/v %): >35 days
- Results: number of days following initiation of treatment when hair growth appeared in 50% of the mice (C3H/HeN mice [1]; 1.0 w/v %): >35 days
- Induction of anagen (conclusion in words) (C3H/HeN mice [1]): inactive

SMILES: Cn1nc(OC2c3cc(S(=O)(=O)c4ccc(O)cc4)ccc3OC(C)(C)C2(C)O)c2ccccc2c1=O (stereo not drawn) [Compound #4]
- Results: number of days following initiation of treatment when hair growth appeared in 50% of the mice (C3H/HeN mice [1]; 0.3 w/v %): >35 days
- Results: number of days following initiation of treatment when hair growth appeared in 50% of the mice (C3H/HeN mice [1]; 1.0 w/v %): >35 days
- Induction of anagen (conclusion in words) (C3H/HeN mice [1]): inactive

SMILES: Cn1nc(O[C@@H]2c3cc(S(=O)(=O)c4ccccc4O)ccc3OC(C)(C)[C@@]2(C)O)ccc1=O [Compound #7]
- Results: number of days following initiation of treatment when hair growth appeared in 50% of the mice (C3H/HeN mice [2]; Experiment 9, 0.03 w/v %, propylene glycol 30%/ethanol 70%, terminated early): >33 days
- Results: number of days following initiation of treatment when hair growth appeared in 50% of the mice (C3H/HeN mice [2]; Experiment 9, 0.3 w/v %, propylene glycol 30%/ethanol 70%, terminated early): >33 days
- Results: number of days following initiation of treatment when hair growth appeared in 50% of the mice (C3H/HeN mice [2]; Experiment 9, 1.0 w/v %, propylene glycol 30%/ethanol 70%, terminated early): >33 days
- Results: number of days following initiation of treatment when hair growth appeared in 50% of the mice (C3H/HeN mice [2]; Experiment 10, 0.1 w/v %, propylene glycol 30%/ethanol 70%, terminated early): >34 days
- Results: number of days following initiation of treatment when hair growth appeared in 50% of the mice (C3H/HeN mice [2]; Experiment 10, 0.1 w/v %, solvent polyethylene glycol 30 v/v %, ethanol 30 v/v %, transcutanol 40 v/v %, terminated early): >34 days
- Results: number of days following initiation of treatment when hair growth appeared in 50% of the mice (C3H/HeN mice [2]; Experiment 10, 0.3 w/v %, propylene glycol 30%/ethanol 70%, terminated early): >34 days
- Results: number of days following initiation of treatment when hair growth appeared in 50% of the mice (C3H/HeN mice [2]; Experiment 10, 0.3 w/v %, solvent polyethylene glycol 30 v/v %, ethanol 30 v/v %, transcutanol 40 v/v %, terminated early): >34 days
- Results: number of days following initiation of treatment when hair growth appeared in 50% of the mice (C3H/HeN mice [2]; [3]): >30 days
- Results: number of days following initiation of treatment when hair growth appeared in 50% of the mice (C3H/HeN mice [2]; [4]): >30 days
- Results: number of days following initiation of treatment when hair growth appeared in 50% of the mice (C3H/HeN mice [2]; [5]): >30 days
- Induction of anagen (conclusion in words) (C3H/HeN mice [2]; [6]): showed no effect at the time of termination
- Results: number of days following initiation of treatment when hair growth appeared in 50% of the mice (C3H/HeN mice [1]; 0.3 w/v %): 21 days
- Results: number of days following initiation of treatment when hair growth appeared in 50% of the mice (C3H/HeN mice [1]; 1.0 w/v %): 21 days
- Induction of anagen (conclusion in words) (C3H/HeN mice [1]): did exhibit activity

SMILES: CCOC(=O)CCCn1nnnc1-c1ccc2c(c1)[C@H](Oc1ccc(O)nn1)[C@@](C)(O)C(C)(C)O2 [Compound #2]
- Results: number of days following initiation of treatment when hair growth appeared in 50% of the mice (C3H/HeN mice [2]; Experiment 3, 0.1 w/v %, propylene glycol 30%/ethanol 70%, terminated early): >35 days
- Results: number of days following initiation of treatment when hair growth appeared in 50% of the mice (C3H/HeN mice [2]; Experiment 3, 0.3 w/v %, propylene glycol 30%/ethanol 70%, terminated early): >35 days
- Results: number of days following initiation of treatment when hair growth appeared in 50% of the mice (C3H/HeN mice [2]; Experiment 3, 1.0 w/v %, propylene glycol 30%/ethanol 70%, terminated early): >35 days
- Results: number of days following initiation of treatment when hair growth appeared in 50% of the mice (C3H/HeN mice [2]; Experiment 3, 2.5 w/v %, propylene glycol 30%/ethanol 70%, terminated early): >35 days

SMILES: Cn1nc(O[C@@H]2c3cc(S(=O)(=O)c4ccc(O)cc4)ccc3OC(C)(C)[C@@]2(C)O)ccc1=O [Compound #6]
- Results: number of days following initiation of treatment when hair growth appeared in 50% of the mice (C3H/HeN mice [2]; Experiment 2, 0.3 w/v %, propylene glycol 30%/ethanol 70%, vehicle 25): 18 days
- Results: number of days following initiation of treatment when hair growth appeared in 50% of the mice (C3H/HeN mice [2]; Experiment 2, 1.0 w/v %, propylene glycol 30%/ethanol 70%, vehicle 25): 30 days
- Results: number of days following initiation of treatment when hair growth appeared in 50% of the mice (C3H/HeN mice [2]; Experiment 5, 0.03 w/v %, propylene glycol 30%/ethanol 70%, vehicle >35): >35 days
- Results: number of days following initiation of treatment when hair growth appeared in 50% of the mice (C3H/HeN mice [2]; Experiment 5, 0.1 w/v %, propylene glycol 30%/ethanol 70%, vehicle >35): >35 days
- Results: number of days following initiation of treatment when hair growth appeared in 50% of the mice (C3H/HeN mice [2]; Experiment 5, 0.3 w/v %, propylene glycol 30%/ethanol 70%, vehicle >35): 23 days
- Induction of anagen (conclusion in words) (C3H/HeN mice [2]; Experiment 5, terminated early): induced anagen at the highest concentration tested (0.3%)
- Results: number of days following initiation of treatment when hair growth appeared in 50% of the mice (C3H/HeN mice [2]; Experiment 6, 0.003 w/v %, propylene glycol 30%/ethanol 70%, vehicle >35): >35 days
- Results: number of days following initiation of treatment when hair growth appeared in 50% of the mice (C3H/HeN mice [2]; Experiment 6, 0.03 w/v %, propylene glycol 30%/ethanol 70%, vehicle >35): >35 days
- Results: number of days following initiation of treatment when hair growth appeared in 50% of the mice (C3H/HeN mice [2]; Experiment 6, 0.3 w/v %, propylene glycol 30%/ethanol 70%, vehicle >35): >35 days
- Induction of anagen (conclusion in words) (C3H/HeN mice [2]; Experiment 6, terminated early, up to day 35): no effect was seen
- Results: number of days following initiation of treatment when hair growth appeared in 50% of the mice (C3H/HeN mice [2]; Experiment 7, 0.003 w/v %, propylene glycol 30%/ethanol 70%, vehicle 29): 31 days
- Results: number of days following initiation of treatment when hair growth appeared in 50% of the mice (C3H/HeN mice [2]; Experiment 7, 0.03 w/v %, propylene glycol 30%/ethanol 70%, vehicle 29): >33 days
- Results: number of days following initiation of treatment when hair growth appeared in 50% of the mice (C3H/HeN mice [2]; Experiment 7, 0.3 w/v %, propylene glycol 30%/ethanol 70%, vehicle 29): >33 days
- Induction of anagen (conclusion in words) (C3H/HeN mice [2]; Experiment 7, proceeded to completion): did not induce anagen prior to the control group
- Results: number of days following initiation of treatment when hair growth appeared in 50% of the mice (C3H/HeN mice [2]; [3]): >30 days
- Results: number of days following initiation of treatment when hair growth appeared in 50% of the mice (C3H/HeN mice [2]; [4]): 14 days
- Results: number of days following initiation of treatment when hair growth appeared in 50% of the mice (C3H/HeN mice [2]; [5]): >30 days
- Induction of anagen (conclusion in words) (C3H/HeN mice [2]; [6]): induced anagen when applied at a concentration of 0.3 w/v %

SMILES: CCOc1c(N[C@@H]2c3cc(S(=O)(=O)c4cccc(O)c4)ccc3OC(C)(C)[C@@]2(C)O)c(=O)c1=O [Compound #3]
- Results: number of days following initiation of treatment when hair growth appeared in 50% of the mice (C3H/HeN mice [1]; 0.3 w/v %): >35 days
- Results: number of days following initiation of treatment when hair growth appeared in 50% of the mice (C3H/HeN mice [1]; 1.0 w/v %): >35 days
- Induction of anagen (conclusion in words) (C3H/HeN mice [1]): inactive
